What all share (assay type): cell-based
In test [1] the target is T1, ENL (Homo sapiens, UniProt Q03111).
T1 construct: Cells were lysed and expression of endogenous ENL was assessed by Western blot analysis; host or cells: MV4;11
T1 sequence (Q03111 1-559): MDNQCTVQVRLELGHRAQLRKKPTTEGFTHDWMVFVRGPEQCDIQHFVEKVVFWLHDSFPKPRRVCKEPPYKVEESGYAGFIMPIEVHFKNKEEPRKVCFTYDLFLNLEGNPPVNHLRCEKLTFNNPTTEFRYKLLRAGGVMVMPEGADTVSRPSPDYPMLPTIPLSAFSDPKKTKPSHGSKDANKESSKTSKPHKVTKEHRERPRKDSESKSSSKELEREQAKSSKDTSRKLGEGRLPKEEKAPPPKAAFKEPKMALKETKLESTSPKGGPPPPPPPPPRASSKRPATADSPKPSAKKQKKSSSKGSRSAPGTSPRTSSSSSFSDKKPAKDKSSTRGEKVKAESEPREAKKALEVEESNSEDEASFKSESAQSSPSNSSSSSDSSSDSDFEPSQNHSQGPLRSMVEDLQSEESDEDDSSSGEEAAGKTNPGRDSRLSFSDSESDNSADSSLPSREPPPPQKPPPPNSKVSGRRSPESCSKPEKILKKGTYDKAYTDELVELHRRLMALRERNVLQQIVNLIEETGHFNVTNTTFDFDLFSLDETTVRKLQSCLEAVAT
Briefly: Western blot of ENL protein levels in MV4; 11 cells. Conditions: 11 cells; for reduction of ENL protein levels: 1 nM to 10 μM for 6 h; for effect of proteasome inhibitor MG132 on the ENL degradation induced by the degrader: 1 μM degrader with or without 1 μM MG132 for 6 h; for ENL protein level after long treatment: 1 μM for 48 and 72 h. On the procedure:
MV4; 11 cells were treated with DMSO or the indicated compounds (the same panel of ENL degraders as shown in FIG. 4) at 1 μM and 10 μM for 24 h. Cells were lysed and expression of ENL was assessed by Western blot analysis.
DMSO treated cells were used as control.
MV4; 11 cells were treated with LQ076-122, or LQ081-107 at 0.3, 1, 3, 10, and 30 μM for 24 h. DMSO treated cells were used as control. Cells were lysed and expression of ENL and GAS41 was assessed by Western analysis.
MV4; 11 cells were treated with DMSO or the indicated compounds at 1 μM and 10 μM for 6 h. Cells were lysed and expression of endogenous ENL was assessed by Western blot analysis.
Cells were treated with 1 μM of ENL degrader with or without 1 μM proteasome inhibitor MG132 for 6 h.
(§1) ENL degraders were dissolved in DMSO. DMSO with no degraders was used as the control. 1×10^6 leukemia cells were seeded in 5 mL medium. For prescreening of compounds, each test compound was added to the medium at 1 μM and 10 μM. Cells were collected after 24 h treatment. For the concentration-dependent treatment, candidate compounds were added to the medium at a series of concentration as indicated in figures. Cells were collected after 24 h treatment. For the time-course treatment, candidate compounds were added to the medium at a final concentration of 4 μM (MV4; 11 cells) or 8 μM (MOLM13 cells). Cells were collected at the indicated timepoints (in hours: 12, 16, 20, 24 and 36 h).
(§2) After ENL degrader treatment, cells were collected, lysed, and total cell lysates were used for Western blot. The following primary antibodies were used: ENL (Cell Signaling Technology), GAS41 (Santa Cruz), GAPDH (Santa Cruz), β-actin (Sigma). Blots were detected using HRP-conjugated secondary antibodies.

For test [2], the target named is T1, ENL. Briefly: Western blot of ENL protein levels in MOLM13 cells. The note with it: for reduction of ENL protein levels: 1 nM to 10 μM for 6 h; for ENL protein level after long treatment: 1 μM for 48 and 72 h. As for the experimental part: MOLM13 cells were treated with LQ076-122 or LQ081-108 at 0, 0.25, 0.5, 1, 1.5, 2, 2.5, 3, 4 and 8 μM for 24 h.
MOLM13 cells were treated with DMSO or 8 μM of LQ076-122 for 12, 16, 20, 24 and 36 h.
MV4; 11, MOLM13 and Jurkat cells were treated with LQ108-69, LQ108-71, LQ108-72, LQ126-62 and LQ126-63 at 0, 1 nM, 10 nM, 100 nM, 1 μM, and 10 μM doses for 6 h. DMSO was used as negative control.
as §1, §2
For orientation: In western blotting, separated proteins are transferred to a membrane and probed.

Test [3] deals with ENL-dependent MV4; 11 cells. Kind of test: Cell viability (CellTiter-Glo), MV4; 11 cells. Conditions: 11 cells, 1.25, 2.5, 5 and 10 μM for 72 h. On the procedure:
MV4; 11 (FIG. 13A), MOLM13 (FIG. 13B) and Jurkat (FIG. 13C) cells were seeded at 2×10^5 cells/mL density and treated with DMSO or indicated compounds 0.5, 1, 2 and 4 μM for 72 h. Cell viability was measured using CellTiter-Glo reagent (Promega) and relative cell viability was calculated by normalization to DMSO samples.
ENL-dependent MV4; 11 cells were seeded at 2×10^5 cells/mL density and treated with DMSO or the indicated compounds at 0, 1.25, 2.5, 5 and 10 μM for 72 h. Cell viability was measured using CellTiter-Glo reagent (Promega) and relative cell viability was calculated by normalization to DMSO samples.
ENL-dependent MV4; 11 and ENL-independent Jurkat cells were seeded at 2×10^5 cells/mL density and treated with DMSO or indicated compounds at 10 nM, 100 nM, 1 μM and 10 μM for 3 days (A) or 6 days (B). Cell viability was measured using CellTiter-Glo reagent (Promega) and relative cell viability was calculated by normalization to DMSO samples.
MV4; 11 or MOLM13 cells were seeded at 0.2×10^6 cells/mL density. Cells were treated with DMSO or ENL degraders at indicated concentrations. Each treatment was done in triplicates. After 72 h treatment, 100 μL of cell suspension from each treatment was mixed with 25 μL of CellTiter-Glo reagent (Promega) and incubated for 10 min before the luminescence signals were detected on a plate reader.

Test [4] concerns the target T1, ENL. Kind of test: Western blot of ENL protein levels in Jurkat cells. The note with it: for reduction of ENL protein levels: 1 nM to 10 μM for 6 h; for ENL protein level after long treatment: 1 μM for 48 and 72 h.
Excerpt: […] DMSO was used as negative control.
as §2

Consider `Cc1ncsc1-c1ccc([C@H](CC(=O)NCCCCCCNC(=O)c2ccc3c(c2)[C@H](NC(=O)c2cc(-c4ccc(C(=O)N(C)C)c(O)c4)on2)CC3)NC(=O)[C@@H]2C[C@@H](O)CN2C(=O)[C@@H](NC(=O)C2(F)CC2)C(C)(C)C)cc1` [LQ108-69, 5-(4-(dimethylcarbamoyl)-3-hydroxyphenyl)-N—((R)-6-((6-((S)-3-((2S,4R)-1-((S)-2-(1-fluorocyclopropane-1-carboxamido)-3,3-dimethylbutanoyl)-4-hydroxypyrrolidine-2-carboxamido)-3-(4-(4-methylthiazol-5-yl)phenyl)propanamido)hexyl)carbamoyl)-2,3-dihydro-1H-inden-1-yl)isoxazole-3-carboxamide], for which, in test [1], the “reduction of ENL protein levels” value is “reduced ENL protein levels in a concentration-dependent manner”, the “effect of proteasome inhibitor MG132 on the ENL degradation induced by the degrader” value is given as “partially blocks the ENL degradation” and the “ENL protein level after long treatment” value was “maintained the ENL protein at low levels”. In addition, in test [2], the “reduction of ENL protein levels” value was “reduced ENL protein levels in a concentration-dependent manner” and the “ENL protein level after long treatment” value was “maintained the ENL protein at low levels”. Besides, in test [3], the “suppression of cell growth (relative cell viability)” value is “significantly suppressed MV4; 11 cell growth at low micromolar concentration”. In addition, in test [4], the “reduction of ENL protein levels” value is reported as “reduced ENL protein levels in a concentration-dependent manner” and the “ENL protein level after long treatment” value was “maintained the ENL protein at low levels”.

Regarding `Cc1ncsc1-c1ccc([C@H](CC(=O)NCCCCCCCNC(=O)c2ccc3c(c2)[C@H](NC(=O)c2cc(-c4ccc(C(=O)N(C)C)c(O)c4)on2)CC3)NC(=O)[C@@H]2C[C@@H](O)CN2C(=O)[C@@H](NC(=O)C2(F)CC2)C(C)(C)C)cc1` [LQ108-70, 5-(4-(dimethylcarbamoyl)-3-hydroxyphenyl)-N—((R)-6-((7-((S)-3-((2S,4R)-1-((S)-2-(1-fluorocyclopropane-1-carboxamido)-3,3-dimethylbutanoyl)-4-hydroxypyrrolidine-2-carboxamido)-3-(4-(4-methylthiazol-5-yl)phenyl)propanamido)heptyl)carbamoyl)-2,3-dihydro-1H-inden-1-yl)isoxazole-3-carboxamide], the “effect of proteasome inhibitor MG132 on the ENL degradation induced by the degrader” value in test [1] is “partially blocks the ENL degradation”. In addition, the “ENL protein level after long treatment” value in test [1], in test [2] and in test [4] was “maintained the ENL protein at low levels” each time. Further, in test [3], the “suppression of cell growth (relative cell viability)” value was “significantly suppressed MV4; 11 cell growth at low micromolar concentration”.

Regarding `Cc1ncsc1-c1ccc([C@H](CC(=O)NCCCCCCCCNC(=O)c2ccc3c(c2)[C@H](NC(=O)c2cc(-c4ccc(C(=O)N(C)C)c(O)c4)on2)CC3)NC(=O)[C@@H]2C[C@@H](O)CN2C(=O)[C@@H](NC(=O)C2(F)CC2)C(C)(C)C)cc1` [LQ108-71, 5-(4-(dimethylcarbamoyl)-3-hydroxyphenyl)-N—((R)-6-((8-((S)-3-((2S,4R)-1-((S)-2-(1-fluorocyclopropane-1-carboxamido)-3,3-dimethylbutanoyl)-4-hydroxypyrrolidine-2-carboxamido)-3-(4-(4-methylthiazol-5-yl)phenyl)propanamido)octyl)carbamoyl)-2,3-dihydro-1H-inden-1-yl)isoxazole-3-carboxamide], the “reduction of ENL protein levels” value in test [1], in test [2] and in test [4] was “reduced ENL protein levels in a concentration-dependent manner” in each case. Besides, the “ENL protein level after long treatment” value in test [1], in test [2] and in test [4] was “maintained the ENL protein at low levels” throughout. The “suppression of cell growth (relative cell viability)” value in test [3] is reported as “significantly suppressed MV4; 11 cell growth at low micromolar concentration”.

For the origin of these results see US20230391765A1, “HETEROBIFUNCTIONAL COMPOUNDS AS DEGRADERS OF ENL” (ICAHN SCHOOL OF MEDICINE AT MOUNT SINAI, priority 2020, published 2023).
